System: HeLa S3 cells
Experiment: Cytotoxicity experiments, percentage of viable cells by Casy-1 cell counter
Assay type: cell-based
Conditions: 24 h incubation
Procedure: Cytotoxicity Experiments: HeLa S3 cells were seeded into 12-well tissue culture dishes in a density of approximately 80000 cells per well. The logarithmically growing cells were cultured for 24 h in Ham's F12 nutrient mixture containing 10% fetal bovine serum, 100 U penicillin per mL and […] streptomycin per mL and incubated at 37° C. with 5% CO2 in air and 100% humidity until the Pt-complexes were added. The cytotoxicity of the Pt-complexes was elucidated by quantifying the percentage of viable cells. Cell viability was measured after 24 h Pt-complex incubation and trypsinizing of cells, by an automatic cell counter (Casy-1, Roche Innovatis AG). These measurements are based on non-invasive (dye-free) electrical current exclusion with signal evaluation via pulse area analysis and allow the structural integrity of cells (membrane integrity and cell death).

C[S+](C)[O-] [DMSO]
DMSO concentration at which no toxic effect was detectable: Below 1.8%
cytotoxicity (2.5% DMSO): a high amount of viable Hela-S3 cells but still some dead cells were detected
cytotoxicity (DMSO concentration from 10% down to 5%): extremely toxic
